Measurements reported in patent US11267795B2, “Crystalline PPAR-delta agonist” (Reneo Pharmaceuticals, Inc., priority 2020, dated 2022).

Legend:
[1] = molecular target: T1, PPARα (Homo sapiens, UniProt Q07869); test: PPAR agonist activity in human cell lines expressing the three PPAR isotypes; format: cell-based
T1 sequence (Q07869 1-468): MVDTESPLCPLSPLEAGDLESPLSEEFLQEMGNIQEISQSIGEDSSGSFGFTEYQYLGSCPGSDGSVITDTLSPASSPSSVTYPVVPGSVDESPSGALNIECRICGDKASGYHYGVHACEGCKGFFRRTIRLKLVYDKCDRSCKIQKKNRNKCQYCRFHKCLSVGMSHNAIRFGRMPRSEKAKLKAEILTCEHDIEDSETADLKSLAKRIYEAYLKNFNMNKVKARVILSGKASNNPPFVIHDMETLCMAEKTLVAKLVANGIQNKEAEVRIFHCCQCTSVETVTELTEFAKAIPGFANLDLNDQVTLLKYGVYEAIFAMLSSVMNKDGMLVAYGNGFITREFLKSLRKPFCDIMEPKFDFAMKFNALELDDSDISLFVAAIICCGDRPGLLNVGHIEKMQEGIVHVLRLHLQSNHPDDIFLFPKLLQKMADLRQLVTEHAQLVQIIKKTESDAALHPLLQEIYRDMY
Experimental: (§1) Compound I is a PPARS agonist that is useful in the methods of treatment described herein. In human cell lines expressing the three peroxisome proliferator-activated receptor (PPAR) isotypes, Compound I is a potent (EC50<100 nM) and selective human PPARS agonist (PPARα (EC50>10 μM) and PPARγ (EC50>10 μM)).

[2] = molecular target: T2, PPARγ (Homo sapiens, UniProt P37231); test: as above; format: cell-based
T2 sequence (P37231 1-505): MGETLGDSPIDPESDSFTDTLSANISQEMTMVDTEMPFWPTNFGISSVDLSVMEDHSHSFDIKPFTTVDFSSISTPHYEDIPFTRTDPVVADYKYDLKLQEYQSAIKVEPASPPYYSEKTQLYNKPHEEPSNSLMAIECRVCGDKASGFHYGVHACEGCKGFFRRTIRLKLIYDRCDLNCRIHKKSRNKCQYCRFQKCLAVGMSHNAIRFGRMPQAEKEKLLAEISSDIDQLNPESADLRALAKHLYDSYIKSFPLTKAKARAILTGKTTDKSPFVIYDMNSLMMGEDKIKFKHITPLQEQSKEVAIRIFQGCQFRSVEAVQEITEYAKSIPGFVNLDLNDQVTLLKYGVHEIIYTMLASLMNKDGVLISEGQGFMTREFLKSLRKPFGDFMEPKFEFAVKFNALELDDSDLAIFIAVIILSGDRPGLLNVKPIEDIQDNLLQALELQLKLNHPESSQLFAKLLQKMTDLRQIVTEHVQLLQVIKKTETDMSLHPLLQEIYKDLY
Experimental: as §1

[3] = molecular target: T3, PPARδ (Homo sapiens, UniProt Q03181); test: as above; format: cell-based
T3 sequence (Q03181 1-441): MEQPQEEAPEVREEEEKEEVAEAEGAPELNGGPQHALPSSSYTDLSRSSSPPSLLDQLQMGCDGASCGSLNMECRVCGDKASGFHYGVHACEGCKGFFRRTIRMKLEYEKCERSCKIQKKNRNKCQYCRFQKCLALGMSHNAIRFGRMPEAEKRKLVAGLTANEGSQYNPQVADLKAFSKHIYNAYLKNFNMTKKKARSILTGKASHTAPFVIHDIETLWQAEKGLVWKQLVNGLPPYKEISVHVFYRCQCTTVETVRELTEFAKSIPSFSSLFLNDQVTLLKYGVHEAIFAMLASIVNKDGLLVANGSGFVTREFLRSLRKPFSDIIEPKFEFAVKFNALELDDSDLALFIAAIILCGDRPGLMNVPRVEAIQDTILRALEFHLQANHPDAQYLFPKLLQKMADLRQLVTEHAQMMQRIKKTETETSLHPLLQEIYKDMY
Experimental: as §1

[4] = tested on: RXR; test: Nuclear receptor activation in human cells expressing the receptor; format: cell-based
[5] = molecular target: T4, FXR (Homo sapiens, UniProt Q96RI1); test: as above; format: cell-based
T4 sequence (Q96RI1 1-486): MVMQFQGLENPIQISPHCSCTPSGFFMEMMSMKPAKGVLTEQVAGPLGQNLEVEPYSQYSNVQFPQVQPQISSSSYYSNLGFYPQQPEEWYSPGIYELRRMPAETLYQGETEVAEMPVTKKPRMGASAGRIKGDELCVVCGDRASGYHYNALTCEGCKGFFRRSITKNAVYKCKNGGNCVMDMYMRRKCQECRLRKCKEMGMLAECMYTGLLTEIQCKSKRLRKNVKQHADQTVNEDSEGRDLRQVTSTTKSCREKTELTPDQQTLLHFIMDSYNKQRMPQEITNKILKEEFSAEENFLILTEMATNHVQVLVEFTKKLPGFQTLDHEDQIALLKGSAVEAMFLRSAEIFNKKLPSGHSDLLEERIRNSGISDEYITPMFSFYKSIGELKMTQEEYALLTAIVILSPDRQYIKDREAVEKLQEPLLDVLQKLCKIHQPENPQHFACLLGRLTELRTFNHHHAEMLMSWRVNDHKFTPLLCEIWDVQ

[6] = molecular target: T5, LXRα (Homo sapiens, UniProt Q13133); test: as above; format: cell-based
T5 sequence (Q13133 1-447): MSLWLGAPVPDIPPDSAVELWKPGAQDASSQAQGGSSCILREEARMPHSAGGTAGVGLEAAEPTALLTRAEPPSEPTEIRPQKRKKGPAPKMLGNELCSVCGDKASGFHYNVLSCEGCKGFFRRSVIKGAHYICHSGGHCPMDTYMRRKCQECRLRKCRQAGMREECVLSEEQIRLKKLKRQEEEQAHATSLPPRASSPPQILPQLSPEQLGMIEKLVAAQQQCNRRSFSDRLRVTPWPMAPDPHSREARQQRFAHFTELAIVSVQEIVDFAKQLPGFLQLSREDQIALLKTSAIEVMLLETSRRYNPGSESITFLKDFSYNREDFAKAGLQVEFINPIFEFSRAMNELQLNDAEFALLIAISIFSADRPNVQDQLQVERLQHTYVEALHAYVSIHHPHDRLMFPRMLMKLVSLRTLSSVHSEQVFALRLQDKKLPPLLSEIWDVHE

[7] = molecular target: T6, LXRP (Homo sapiens, UniProt P55055); test: as above; format: cell-based
T6 sequence (P55055 1-460): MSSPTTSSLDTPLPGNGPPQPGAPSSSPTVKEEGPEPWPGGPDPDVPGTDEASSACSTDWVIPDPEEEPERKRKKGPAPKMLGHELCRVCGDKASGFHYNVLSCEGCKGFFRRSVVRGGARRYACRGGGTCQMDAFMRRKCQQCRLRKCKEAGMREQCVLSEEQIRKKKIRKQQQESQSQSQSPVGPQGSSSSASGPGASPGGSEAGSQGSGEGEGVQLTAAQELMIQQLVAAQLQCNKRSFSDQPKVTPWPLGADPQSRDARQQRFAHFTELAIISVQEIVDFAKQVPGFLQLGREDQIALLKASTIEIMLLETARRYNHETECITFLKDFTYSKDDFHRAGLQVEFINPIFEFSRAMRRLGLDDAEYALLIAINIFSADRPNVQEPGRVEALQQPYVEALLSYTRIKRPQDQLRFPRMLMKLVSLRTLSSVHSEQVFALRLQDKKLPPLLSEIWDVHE

[8] = tested on: PPARS regulated genes (CPT1b, PGC-1α) in mice muscle; test: In vivo expression of PPARδ regulated genes in mice muscle
[9] = tested on: Angiopoietin-like 4 (ANGPTL4); test: In vivo expression of PPAR target gene in rat muscle
[10] = human cell lines expressing the PPAR isotypes

## Cc1cc(OC/C=C(/c2ccc(F)cc2)c2ccc(C#CCN3CCOCC3)cc2)ccc1OCC(=O)O [Compound I, (E)-2-(4-((3-(4-fluorophenyl)-3-(4-(3-morpholinoprop-1-yn-1-yl)phenyl)allyl)oxy)-2-methylphenoxy)acetic acid]
[1]
  type of agonism at PPARα: partial agonist
[1]; [10]
  EC50: > 10 µM
[2]
  type of agonism at PPARγ: partial agonist
[2]; [10]
  EC50: > 10 µM
[3]
  type of agonism at PPARδ: full PPARS agonist
[3]; [10]
  EC50: < 0.1 µM
[4]
  activation of nuclear receptor RXR: has not resulted in activation
[5]
  activation of nuclear receptor FXR: has not resulted in activation
[6]
  activation of nuclear receptor LXRα: has not resulted in activation
[7]
  activation of nuclear receptor LXRP: has not resulted in activation
[8]
  expression of PPARδ regulated genes (CPT1b, PGC-1α): altered the expression patterns
[9]
  expression of Angiopoietin-like 4 (ANGPTL4): increased the expression
